Values quoted from earlier work in Sander's compilation of Henry's law constants.

Assay: Henry solubility constant Hcp at 298.15 K (mol/(m3 Pa))
Conditions: cited value
[1] = reference: Burkholder et al. (2015)
[2] = reference: Burkholder et al. (2019)
[3] = reference: Sander et al. (2011)
[4] = reference: Barcelo and Hennion (1997)
[5] = reference: Sander et al. (2006)

Q: Which “Henry solubility constant Hcp” value (reference: Brockbank (2013)) does the source give for `CCc1ccccc1N` [2-ethylaniline] here?
A: The value was 2.6.

Q: For `O=C(O)CF` [fluoroethanoic acid], which “Henry solubility constant Hcp” value [1] is on record?
A: The value was 800.

Q: And the “Henry solubility constant Hcp” value [2]?
A: The value was 800.

Q: What about the “Henry solubility constant Hcp” value [3] of the same compound?
A: The value was 800.

Q: Which “Henry solubility constant Hcp” value [4] does the source give for `COP(=O)(OC)C(O)C(Cl)(Cl)Cl` (centres undefined) here?
A: Its value is 5800.

Q: Which “Henry solubility constant Hcp” value (reference: Brockbank (2013)) does the source give for `CCCCCCCCCC` [decane] here?
A: The value was 1.3e-06.

Q: With `ClC1=C(Cl)C(Cl)(Cl)C(Cl)=C1Cl` [hexachlorocyclopentadiene] as the compound, how does the “Henry solubility constant Hcp” value (reference: Goldstein (1982)) read?
A: The value was 0.0006.

Q: For `CC(C)C` [2-methylpropane], which “Henry solubility constant Hcp” value [1] is on record?
A: Its value is 9.1e-06.

Q: What about the “Henry solubility constant Hcp” value [2] of the same compound?
A: The value was 9.1e-06.

Q: And the “Henry solubility constant Hcp” value (reference: Hayduk (1986))?
A: Its value is 9.1e-06.

Q: And the “Henry solubility constant Hcp” value [5]?
A: Its value is 9.1e-06.

Q: What about the “Henry solubility constant Hcp” value [3] of the same compound?
A: Its value is 9.1e-06.

Q: Which “Henry solubility constant Hcp” value (reference: Brockbank (2013)) does the source give for `Cc1ccc(Cl)cc1` [1-chloro-4-methylbenzene] here?
A: Its value is 0.0027.

Q: With `CCCCC(O)CC` (centres undefined) [3-heptanol] as the compound, how does the “Henry solubility constant Hcp” value (reference: Brockbank (2013)) read?
A: The value was 0.32.

Q: Which “Henry solubility constant Hcp” value (reference: Brockbank (2013)) does the source give for `CCCCCCCCCCCO` [1-undecanol] here?
A: Its value is 0.14.

Q: With `CBr` [bromomethane] as the compound, how does the “Henry solubility constant Hcp” value (reference: Brockbank (2013)) read?
A: Its value is 0.0015.

Q: And the “Henry solubility constant Hcp” value [1]?
A: The value was 0.0017.

Q: What about the “Henry solubility constant Hcp” value [2] of the same compound?
A: Its value is 0.0015.

Q: What about the “Henry solubility constant Hcp” value (reference: Goldstein (1982)) of the same compound?
A: The value was 4.4e-05.

Q: What about the “Henry solubility constant Hcp” value [5] of the same compound?
A: The value was 0.0017.

Q: And the “Henry solubility constant Hcp” value [3]?
A: The value was 0.0017.

Q: For `CCCOC=O` [propyl methanoate], which “Henry solubility constant Hcp” value (reference: Brockbank (2013)) is on record?
A: Its value is 0.031.

Q: And the “Henry solubility constant Hcp” value [1]?
A: Its value is 0.026.

Q: What about the “Henry solubility constant Hcp” value [2] of the same compound?
A: The value was 0.026.

Q: What about the “Henry solubility constant Hcp” value [3] of the same compound?
A: The value was 0.026.

Q: Which “Henry solubility constant Hcp” value (reference: Meynier et al. (2003)) does the source give for `CCC/C=C/C=O` [(E)-2-hexenal] here?
A: The value was 0.2.

Q: Which “Henry solubility constant Hcp” value (reference: Brockbank (2013)) does the source give for `c1ccc2c(c1)[nH]c1ccccc12` [carbazole] here?
A: The value was 94.

Q: For `CCCCCCCCCc1ccccc1` [nonylbenzene], which “Henry solubility constant Hcp” value (reference: Brockbank (2013)) is on record?
A: The value was 0.00014.

Q: Which “Henry solubility constant Hcp” value [4] does the source give for `CNC(=O)Oc1cccc2c1OC(C)(C)C2` [carbofuran] here?
A: Its value is 19.

Q: For `COc1ccc(-c2ccccc2)cc1NNC(=O)OC(C)C` [bifenazate], which “Henry solubility constant Hcp” value (reference: MacBean (2012b)) is on record?
A: Its value is 1000.

Q: Which “Henry solubility constant Hcp” value (reference: Goldstein (1982)) does the source give for `ClCC1CO1` (centres undefined) [(chloromethyl)-oxirane] here?
A: Its value is 0.28.

Q: For `CNC(=O)O/N=C/C(C)(C)SC` [aldicarb], which “Henry solubility constant Hcp” value [4] is on record?
A: Its value is 31.

Q: For `[Rn]` [radon], which “Henry solubility constant Hcp” value (reference: Clever (1979b)) is on record?
A: Its value is 9.1e-05.

Q: For `CN=C=S` [methyl isothiocyanate], which “Henry solubility constant Hcp” value [1] is on record?
A: Its value is 0.17.

Q: What about the “Henry solubility constant Hcp” value [2] of the same compound?
A: The value was 0.17.

Q: What about the “Henry solubility constant Hcp” value [3] of the same compound?
A: Its value is 0.17.

Q: Which “Henry solubility constant Hcp” value (reference: Howard and Meylan (1997)) does the source give for `CCOCCOCC` [1,2-diethoxyethane] here?
A: Its value is 0.12.

Q: Which “Henry solubility constant Hcp” value (reference: Barr and Newsham (1987)) does the source give for `ClCC(Cl)Cl` [1,1,2-trichloroethane] here?
A: The value was 0.011.

Q: What about the “Henry solubility constant Hcp” value (reference: Brockbank (2013)) of the same compound?
A: Its value is 0.011.

Q: What about the “Henry solubility constant Hcp” value [1] of the same compound?
A: The value was 0.011.

Q: What about the “Henry solubility constant Hcp” value [2] of the same compound?
A: Its value is 0.011.

Q: What about the “Henry solubility constant Hcp” value (reference: Fogg and Sangster (2003)) of the same compound?
A: Its value is 0.012.

Q: And the “Henry solubility constant Hcp” value (reference: Goldstein (1982))?
A: The value was 0.012.

Q: Which “Henry solubility constant Hcp” value (reference: Brockbank (2013)) does the source give for `CCCCC=O` [pentanal] here?
A: The value was 0.066.

Q: Which “Henry solubility constant Hcp” value (reference: Brockbank (2013)) does the source give for `Nc1ccccc1Cl` [1-amino-2-chlorobenzene] here?
A: Its value is 1.9.

Q: For `Clc1cc(Cl)c(-c2cc(Cl)c(Cl)cc2Cl)cc1Cl` [2,2',4,4',5,5'-hexachlorobiphenyl], which “Henry solubility constant Hcp” value (reference: Murphy et al. (1983b)) is on record?
A: The value was 0.028.

Q: For `[O-]O` [hydroperoxy radical], which “Henry solubility constant Hcp” value (reference: Régimbal and Mozurkewich (1997)) is on record?
A: Its value is 57.

Q: For `CCOC=O` [ethyl methanoate], which “Henry solubility constant Hcp” value (reference: Brockbank (2013)) is on record?
A: Its value is 0.033.

Q: And the “Henry solubility constant Hcp” value [1]?
A: The value was 0.034.

Q: What about the “Henry solubility constant Hcp” value [2] of the same compound?
A: The value was 0.034.

Q: And the “Henry solubility constant Hcp” value [3]?
A: Its value is 0.034.

Q: Which “Henry solubility constant Hcp” value (reference: Brockbank (2013)) does the source give for `OCCc1ccccc1` [2-phenylethanol] here?
A: Its value is 17.

Q: Which “Henry solubility constant Hcp” value (reference: Brockbank (2013)) does the source give for `C#CCCCCCCC` [1-nonyne] here?
A: The value was 8.5e-05.

Q: For `COP(=S)(OC)SCN1C(=O)c2ccccc2C1=O` [phosmet], which “Henry solubility constant Hcp” value [4] is on record?
A: Its value is 10.
